Source: publication PMC11860776 (Viruses, 2025)
“Also recorded” adds a separate entry of the source. Like-named read-outs stand apart in the source and are kept apart here.

Experiments:
B19V [1] = assay: Antiviral assay: B19V DNA replication by qPCR in EPCs; type: cell-based, Human parvovirus B19; conditions: B19V DNA 48 hpi vs 2 hpi, table: mean (95% CI)
[2] = target: T1, mIMPα2ΔIBB:NS1 NLS interaction (Mus musculus, UniProt P52293); assay: AlphaScreen inhibition assay of the IMPα:NS1-NLS interaction; type: binding
T1 construct: made in house; host or cells: bacteria

EPCs = assay: Cell cytotoxicity assay (WST-8, CCK-8) in EPCs; type: cell-based, human; conditions: for CC50: WST-8 based assay, TLTM: too low to measure; for cell toxicity: every concentration tested
UT7/EpoS1 cells = assay: Cell cytotoxicity assay (alamarBlue HS) in UT7/EpoS1 cells; type: cell-based; conditions: for CC50: 6 h + 48 h with compound, alamarBlue, table: mean (95% CI)
B19V [3] = assay: Antiviral assay: B19V DNA replication by qPCR in UT7/EpoS1 cells; type: cell-based, Human parvovirus B19; conditions: for EC50: B19V DNA 48 hpi vs 2 hpi, table: mean (95% CI); for inhibition of viral replication: compounds at 10 μM, 48 hpi vs 2 hpi
B19V [4] = system: B19V; design: method as in earlier work; conditions: UT7/EpoS1 cells, IVM at 10 μM; cited from earlier work
[5] = titration 0-5 μM, average ± SD, 4 independent experiments, read-out: IC50

Compound | IC50 [2, 5] | CC50 (UT7/EpoS1 cells) | EC50 (B19V [3]) | inhibition of viral replication (B19V [3]) | further results
CC[C@H](C)[C@H]1O[C@]2(CC[C@@H]1C)C[C@@H]1C[C@@H](C/C=C(\C)[C@@H](O[C@H]3C[C@H](OC)[C@@H](O[C@H]4C[C@H](OC)[C@@H](O)[C@H](C)O4)[C@H](C)O3)[C@@H](C)/C=C/C=C3\CO[C@@H]4[C@H](O)C(C)=C[C@@H](C(=O)O1)[C@]34O)O2 [IVM, Ivermectin] | 0.0118 ± 0.004 µM | 14.5 µM | 7.6 µM | inhibited viral replication | EC50 (B19V [1]): 3.3 µM; AlphaScreen counts (mIMPα2ΔIBB:NS1 NLS interaction) ([2]; IVM 10 μM (text; figure legend says 2.5 μM) vs absence): significant reduction; CC50 (EPCs): TLTM; cell toxicity (EPCs): extremely toxic at every concentration tested; concentrations causing significative toxicity (UT7/EpoS1 cells): above 12.5 μM; concentration from which strong inhibition of B19V DNA replication starts (B19V [3]): ≥ 6 µM; inhibition of B19V viral replication (B19V [4]): could inhibit B19V viral replication
CC(Nc1nc(N2CCCC2)nc2ccccc12)c1ccccc1 (stereo not shown) [Importazole] | – | 30 µM | 13.4 µM | inhibited viral replication; also recorded: inhibited viral replication more than IVM | –
CO/N=C1\C[C@]2(C[C@@H]3C[C@@H](C/C=C(\C)C[C@@H](C)/C=C/C=C4\CO[C@@H]5[C@H](O)C(C)=C[C@@H](C(=O)O3)[C@]45O)O2)O[C@H](/C(C)=C/C(C)C)[C@H]1C [Moxidectin] | 0.0157 ± 0.0012 µM | – | – | – | –
CO[C@H]1C[C@H](O[C@@H]2/C(C)=C/C[C@@H]3C[C@@H](C[C@]4(CC[C@H](C)[C@@H](C5CCCCC5)O4)O3)OC(=O)[C@@H]3C=C(C)/C(=N/O)[C@H]4OC/C(=C\C=C\[C@@H]2C)[C@]43O)O[C@@H](C)[C@@H]1O [Selamectin] | – | – | – | – | IC50 [2]: 0.0508 ± 0.0029 µM
Avermectin B1 | 0.0361 ± 0.0177 µM | – | 9.8 µM | inhibited viral replication more than IVM | –
Emamectin benzoate [Emamectin benozate] | 0.0099 ± 0.003 µM | – | – | – | –
Eprinomectin | 0.0409 ± 0.0099 µM | 15.9 µM | 3.2 µM | inhibited viral replication more than IVM | EC50 (B19V [1]): 6.5 µM; CC50 (EPCs): TLTM; cell toxicity (EPCs): extremely toxic at every concentration tested
Milbemycin oxime | 0.0269 ± 0.0159 µM | – | – | – | –
